Measurements from patent US10828317B2, “Method of treating bacterial infections” (priority 2016, dated 2020).

How the values were obtained:
K. pneumoniae EN0245 = assay: MIC, colistinR; type: cell-based; details: combination FdUrd+trimethoprim+uridine, Table 19
E. coli EN0136 = assay: MIC, ESBL (CTX-M-2); type: cell-based; details: combination FdUrd+trimethoprim+uridine, Table 19
P. aeruginosa EN0422 = assay: MIC; type: cell-based, Pseudomonas aeruginosa; details: combination FdUrd+trimethoprim+uridine, Table 8
P. aeruginosa EN014 = assay: MIC, WT; type: cell-based, Pseudomonas aeruginosa; details: combination FdUrd+trimethoprim+uridine, Table 8
K. pneumoniae EN0244 = assay: MIC, colistinR; type: cell-based; details: combination FdUrd+trimethoprim+uridine, Table 19
E. coli EN002 = assay: MIC, DtoIC; type: cell-based, Escherichia coli; details: combination FdUrd+trimethoprim+uridine, Table 8
K. pneumoniae EN0145 = assay: MIC, KPC-2; type: cell-based; details: combination FdUrd+trimethoprim+uridine, Table 19
S. flexneri APV00907 = assay: MIC and antibiogram; type: cell-based; details: combination FdUrd+trimethoprim+uridine, Table 22A
From the text: Inhibition of Heliobacter is important in view of increasing resistance and its association to gastric cancer.

P. aeruginosa EN0459 = assay: MIC; type: cell-based, Pseudomonas aeruginosa; details: combination FdUrd+trimethoprim+uridine, Table 8
K. pneumoniae EN0249 = assay: MIC, colistinR; type: cell-based; details: combination FdUrd+trimethoprim+uridine, Table 19
S. epidermidis EN0456 = assay: MIC; type: cell-based, Staphylococcus epidermidis; details: combination FdUrd+trimethoprim+uridine, Table 8
P. mirabilis ST19 EN0445 = assay: MIC; type: cell-based, Proteus mirabilis; details: combination FdUrd+trimethoprim+uridine, Table 8
E. coli B EN0458 = assay: MIC; type: cell-based, Escherichia coli B; details: combination FdUrd+trimethoprim+uridine, Table 8
A. baumannii EN016 = assay: MIC, WT; type: cell-based, Acinetobacter baumannii; details: combination FdUrd+trimethoprim+uridine, Table 8
E. coli EN0134 = assay: MIC, AmpC (CMY-4); type: cell-based; details: combination FdUrd+trimethoprim+uridine, Table 19
P. aeruginosa EN0460 = assay: MIC; type: cell-based, Pseudomonas aeruginosa; details: combination FdUrd+trimethoprim+uridine, Table 8
K. pneumoniae EN0463 = assay: MIC; type: cell-based, Klebsiella pneumoniae; details: combination FdUrd+trimethoprim+uridine, Table 8
E. coli EN012 = assay: MIC, WT; type: cell-based, Escherichia coli; details: combination FdUrd+trimethoprim+uridine, Table 8
S. sonnei APV00908 = assay: MIC and antibiogram; type: cell-based; details: combination FdUrd+trimethoprim+uridine, Table 22A
E. coli EN001 = assay: MIC, WT (EN001 = EN0001, ATCC 25922); type: cell-based, Escherichia coli; details: combination FdUrd+trimethoprim+uridine, Table 19
P. aeruginosa EN004 = assay: MIC, WT (EN004 = EN0004); type: cell-based, Pseudomonas aeruginosa; details: combination FdUrd+trimethoprim+uridine
A. baumannii EN007 = assay: MIC, WT (EN007 = EN0007); type: cell-based, Acinetobacter baumannii; details: combination FdUrd+trimethoprim+uridine
P. mirabilis EN0457 = assay: MIC; type: cell-based, Proteus mirabilis; details: combination FdUrd+trimethoprim+uridine, Table 8
M. luteus EN0455 = assay: MIC; type: cell-based, Micrococcus luteus; details: combination FdUrd+trimethoprim+uridine, Table 8
E. coli EN0235 = assay: microbe, parasite or virus in culture; type: cell-based; details: combination FdUrd+trimethoprim+uridine, Table 19
[1] = system: A. pittii or A. nosocomialis EN0180; assay: MIC; type: cell-based, Acinetobacter pittii or nosocomialis; details: combination FdUrd+trimethoprim+uridine, Table 8
S. marescens EN0454 = assay: MIC; type: cell-based, Serratia marescens; details: combination FdUrd+trimethoprim+uridine, Table 8
Citrobacter sp. EN0465 = assay: MIC; type: cell-based; details: combination FdUrd+trimethoprim+uridine, Table 8
E. aerogenes EN0461 = assay: MIC; type: cell-based, Enterobacter aerogenes; details: combination FdUrd+trimethoprim+uridine, Table 8
K. pneumoniae EN0144 = assay: MIC, MBL (VIM-1); type: cell-based; details: combination FdUrd+trimethoprim+uridine, Table 19
K. pneumoniae EN006 = assay: MIC, WT (EN006 = EN0006, ATCC 13883); type: cell-based, Klebsiella pneumoniae; details: combination FdUrd+trimethoprim+uridine
E. coli EN0137 = assay: MIC, ESBL (CTX-M-15); type: cell-based; details: combination FdUrd+trimethoprim+uridine, Table 19

Measured: MIC

O=c1[nH]c(=O)n([C@H]2C[C@H](O)[C@@H](CO)O2)cc1F [FdUrd, Fluorodeoxyuridine]
4 µg/mL: A. baumannii EN016 | [1]
>4 µg/mL: K. pneumoniae EN0245 | P. aeruginosa EN0422 | P. aeruginosa EN014 | K. pneumoniae EN0244 | K. pneumoniae EN0145 | S. flexneri APV00907 | P. aeruginosa EN0459 | K. pneumoniae EN0249 | E. coli EN0134 | P. aeruginosa EN0460 | S. sonnei APV00908 | P. aeruginosa EN004; Table 8 | P. aeruginosa EN004; Table 19 | A. baumannii EN007; Table 8 | A. baumannii EN007; Table 19 | S. marescens EN0454 | Citrobacter sp. EN0465 | K. pneumoniae EN0144 | E. coli EN0137
1 µg/mL: E. coli EN0136 | P. mirabilis EN0457 | E. aerogenes EN0461
0.25 µg/mL: K. pneumoniae EN0463 | E. coli EN001
0.06 µg/mL: E. coli EN0235
2 µg/mL: M. luteus EN0455
0.032 µg/mL: E. coli EN002 | E. coli B EN0458 | E. coli EN012
<0.008 µg/mL: S. epidermidis EN0456
0.5 µg/mL: P. mirabilis ST19 EN0445 | K. pneumoniae EN006; Table 8 | K. pneumoniae EN006; Table 19
